Data reported in patent publication US20240294508A1, “RIP1 MODULATORS INCLUDING AZETIDINE CYCLIC UREAS, PREPARATIONS, AND USES THEREOF” (SIRONAX LTD., priority 2021, published 2024).

tested on: HT-29 cells; assay: HT29 cells 0FBS assay in vitro: TNF-α/SMAC mimetic/zVAD-FMK induced necroptosis, CellTiter-Glo cell viability (RIP1 inhibitory activity); type: cell-based; details: Homo sapiens, FBS free medium, TNF-α (10 ng/ml) + SMAC mimetic (6 uM) + zVAD-FMK (10 μM), 20 hours, geometric mean EC50
Source text: Protocol for HT29 Cells 0FBS Assay In Vitro
• Cell line: HT-29 (ATCC® HTB-38™) • Culture medium: McCOY's 5A, Gibco, Cat No. 16600-082 • FBS, Gibco, Cat No. 10099-141C • Trypsin: Gibco, Cat No. 25200-056 • DMSO: Sigma, Cat No. 67-68-5, 1L • Assay plate: Corning #3903 • Compound dilution plate: Corning #3357 • Inducers: TNFα, GenScript, Cat No. Z01001-50, • SmacM, Cat. No., HY-15989, MedChemExpress (MCE) • Z_VAD FMK, TargetMol, T6013 • Cell Titer-Glo® Luminescent Cell Viability Assay Kit: Promega, Cat No. G7573 • EnVision: PerkinElmer, 2105-0010
2. Cell Seeding of HT-29 Cells
1) HT-29 cells were checked every day to make sure they are healthy and growing as expected. They were split sub-culturing when were approximately 80% confluent.
2) First pre-warm the culture medium of McCOY's 5A medium (Gibco, Cat No. 16600-082) with 10% FBS (Gibco, Cat No. 10099-141C) in 37° C. water bath for at least 30 min.
3) Growing cells to desired level of confluency 80% in a T75 flask, aspirate the medium, and wash with warm PBS two times.
4) Add 2-3 ml fresh warm trypsin (Gibco, Cat No. 25200-056) solution. Transfer the flask to a 37° C. incubator.
5) After 5 minutes, tap the side of the flask, and examine the flask under a microscope for lifting. If necessary, return the cells to the incubator for an additional 5-10 minutes, with occasional tapping, until lifting is complete.
6) Quickly neutralize the trypsin reaction by adding 6-9 ml cell culture medium, then transfer the cells to sterile 15 ml conical tubes. Pellet the cells by centrifugation at 300×g for 7 minutes, then decant the supernatant.
7) Resuspend the cells in fresh cell culture medium. Do cell counting with hemocytometer.
8) Seed 100 μl of 5,000 cells into each well of the sterile 96-well cell culture plate (Corning 3903) and culture overnight at 37° C. with 5% CO2.
3. Compounds Titration and Treatment of HT-29 Cells
1) All batches of compounds (CPDs0 (e.g., compound 1-169) were dissolved in DMSO (Dimethyl sulfoxide) as 20 mM stock solution.
2) Take 3 ul 20 mM stock solution of CPDs to […] DMSO and mix well, continue the titration ratio of 1:3 (20 ul CPDs+40 ul DMSO), e.g., to give solutions of CPDS at 6.6 mM, 2.2 mM, etc., till the 10 points end.
3) Take out assay plates with HT-29 cells from incubator, remove all culture medium then wash 1 time with 1×PBS, and change fresh McCOY's 5A medium of FBS free with a cocktail of TNF-α (10 ng/ml), the SMAC mimetic (6 uM) and zVAD-FMK (10 μM) to stimulate the HT-29 cells to increase pRIPK1 levels and necroptosis.
4) Add 0.5 μL of the diluted compound to the corresponding 96-well assay plates.
5) Incubate the assay plates for 20 hours at 37° C. with 5% CO2.
4. Performing Cell Viability Detection of HT-29 Cells after Treated with Compounds
1) The CellTiter-Glo® Luminescent Cell Viability Assay was employed to detect the ATP levels of viable HT-29 cells.
2) Equilibrate the CellTiter-Glo® buffer and the lyophilized substrate to room temperature prior to use.
3) Resuspend the CellTiter-Glo® substrate with CellTiter-Glo® buffer, mix by gently vortexing to obtain a homogeneous solution.
4) Pipette 20 μl the enzyme/substrate mixture by multi-channel pipette into the 96-well assay plates from step 5) under the Compounds titration and treatment stage.
5) Place the plates on an orbital shaker and mix the contents for 3 minutes to induce cell lysis.
6) Then allow the plates to incubate at room temperature for 10 minutes to stabilize luminescent signal.
7) Read and record luminescence signal with EnVision.
8) The geometric mean EC50 of the compounds were calculated from 10 points response dose with duplicate. In Table 2, activity is provided as follows: +++=0.1 nM≤EC50<100 nM; ++=100 nM≤EC5 1000 nM; […].

SMILES	EC50
Cn1cccc(-c2cc(OC3CN(C(=O)N4N=CC[C@H]4c4cc(F)cc(F)c4)C3)c(F)cn2)c1=O (stereo in doubt) [Compound 169, 4-((1-(5-(3,5-difluorophenyl)-4,5-dihydro-1H-pyrazole-1-carbonyl)azetidin-3-yl)oxy)-5-fluoro-1′-methyl-[2,3′-bipyridin]-2′(1′H)-one]	100 to 1000 nM
Cn1nccc1-c1ncc(F)c(OC2CN(C(=O)N3N=CC[C@H]3c3cc(F)cc(C#N)c3)C2)n1 [Compound 1, (S)-3-fluoro-5-(1-(3-((5-fluoro-2-(1-methyl-1H-pyrazol-5-yl)pyrimidin-4-yl)oxy)azetidine-1-carbonyl)-4,5-dihydro-1H-pyrazol-5-yl)benzonitrile]	0.1 to 100 nM
Cn1nccc1-c1ncc(F)c(OC2CN(C(=O)N3N=CC[C@H]3c3cncc(F)c3)C2)n1 [Compound 2, (S)-(3-((5-fluoro-2-(1-methyl-1H-pyrazol-5-yl)pyrimidin-4-yl)oxy)azetidin-1-yl)(5-(5-fluoropyridin-3-yl)-4,5-dihydro-1H-pyrazol-1-yl)methanone]	0.1 to 100 nM
Cc1noc(C)c1-c1ncc(F)c(OC2CN(C(=O)N3N=CC[C@H]3c3cc(F)cc(C#N)c3)C2)n1 [Compound 3, (S)-3-(1-(3-((2-(3,5-dimethylisoxazol-4-yl)-5-fluoropyrimidin-4-yl)oxy)azetidine-1-carbonyl)-4,5-dihydro-1H-pyrazol-5-yl)-5-fluorobenzonitrile]	0.1 to 100 nM
Cc1noc(C)c1-c1ncc(F)c(OC2CN(C(=O)N3N=CC[C@H]3c3cncc(F)c3)C2)n1 [Compound 4, (S)-(3-((2-(3,5-dimethylisoxazol-4-yl)-5-fluoropyrimidin-4-yl)oxy)azetidin-1-yl)(5-(5-fluoropyridin-3-yl)-4,5-dihydro-1H-pyrazol-1-yl)methanone]	0.1 to 100 nM
Cn1ncc(F)c1-c1cc(OC2CN(C(=O)N3N=CC[C@H]3c3cc(F)cc(C#N)c3)C2)c(F)cn1 [Compound 5, (S)-3-fluoro-5-(1-(3-((5-fluoro-2-(4-fluoro-1-methyl-1H-pyrazol-5-yl)pyridin-4-yl)oxy)azetidine-1-carbonyl)-4,5-dihydro-1H-pyrazol-5-yl)benzonitrile]	0.1 to 100 nM
Cn1ncc(Cl)c1-c1cc(OC2CN(C(=O)N3N=CC[C@H]3c3cc(F)cc(C#N)c3)C2)c(F)cn1 [Compound 6, (S)-3-(1-(3-((2-(4-chloro-1-methyl-1H-pyrazol-5-yl)-5-fluoropyridin-4-yl)oxy)azetidine-1-carbonyl)-4,5-dihydro-1H-pyrazol-5-yl)-5-fluorobenzonitrile]	0.1 to 100 nM
Cn1nccc1-c1cc(OC2CN(C(=O)N3N=CC[C@H]3c3cc(F)cc(C#N)c3)C2)c(F)cn1 [Compound 7, (S)-3-fluoro-5-(1-(3-((5-fluoro-2-(1-methyl-1H-pyrazol-5-yl)pyridin-4-yl)oxy)azetidine-1-carbonyl)-4,5-dihydro-1H-pyrazol-5-yl)benzonitrile]	0.1 to 100 nM
Cn1ncc(C#N)c1-c1ncc(F)c(OC2CN(C(=O)N3N=CC[C@H]3c3cc(F)cc(C#N)c3)C2)n1 [Compound 8, (S)-5-(4-((1-(5-(3-cyano-5-fluorophenyl)-4,5-dihydro-1H-pyrazole-1-carbonyl)azetidin-3-yl)oxy)-5-fluoropyrimidin-2-yl)-1-methyl-1H-pyrazole-4-carbonitrile]	0.1 to 100 nM
Cn1ncc(C#N)c1-c1cc(OC2CN(C(=O)N3N=CC[C@H]3c3cc(F)cc(C#N)c3)C2)c(F)cn1 [Compound 9, (S)-5-(4-((1-(5-(3-cyano-5-fluorophenyl)-4,5-dihydro-1H-pyrazole-1-carbonyl)azetidin-3-yl)oxy)-5-fluoropyridin-2-yl)-1-methyl-1H-pyrazole-4-carbonitrile]	0.1 to 100 nM
Cn1ncc(C(N)=O)c1-c1cc(OC2CN(C(=O)N3N=CC[C@H]3c3cc(F)cc(C#N)c3)C2)c(F)cn1 [Compound 10, (S)-5-(4-((1-(5-(3-cyano-5-fluorophenyl)-4,5-dihydro-1H-pyrazole-1-carbonyl)azetidin-3-yl)oxy)-5-fluoropyridin-2-yl)-1-methyl-1H-pyrazole-4-carboxamide]	100 to 1000 nM
Cc1cnn(C)c1-c1cc(OC2CN(C(=O)N3N=CC[C@H]3c3cc(F)cc(C#N)c3)C2)c(F)cn1 [Compound 11, (S)-3-(1-(3-((2-(1,4-dimethyl-1H-pyrazol-5-yl)-5-fluoropyridin-4-yl)oxy)azetidine-1-carbonyl)-4,5-dihydro-1H-pyrazol-5-yl)-5-fluorobenzonitrile]	0.1 to 100 nM
CCn1nccc1-c1cc(OC2CN(C(=O)N3N=CC[C@H]3c3cc(F)cc(C#N)c3)C2)c(F)cn1 [Compound 12, (S)-3-(1-(3-((2-(1-ethyl-1H-pyrazol-5-yl)-5-fluoropyridin-4-yl)oxy)azetidine-1-carbonyl)-4,5-dihydro-1H-pyrazol-5-yl)-5-fluorobenzonitrile]	0.1 to 100 nM
Cn1ccnc1-c1ccc(F)c(OC2CN(C(=O)N3N=CC[C@H]3c3cc(F)cc(C#N)c3)C2)n1 [Compound 13, (S)-3-fluoro-5-(1-(3-((3-fluoro-6-(1-methyl-1H-imidazol-2-yl)pyridin-2-yl)oxy)azetidine-1-carbonyl)-4,5-dihydro-1H-pyrazol-5-yl)benzonitrile]	0.1 to 100 nM
Cn1cc(-c2cc(OC3CN(C(=O)N4N=CC[C@H]4c4cc(F)cc(C#N)c4)C3)c(F)cn2)nn1 [Compound 14, (S)-3-fluoro-5-(1-(3-((5-fluoro-2-(1-methyl-1H-1,2,3-triazol-4-yl)pyridin-4-yl)oxy)azetidine-1-carbonyl)-4,5-dihydro-1H-pyrazol-5-yl)benzonitrile]	100 to 1000 nM
Cn1ncc(-c2cc(OC3CN(C(=O)N4N=CC[C@H]4c4cc(F)cc(C#N)c4)C3)c(F)cn2)n1 [Compound 15, (S)-3-fluoro-5-(1-(3-((5-fluoro-2-(2-methyl-2H-1,2,3-triazol-4-yl)pyridin-4-yl)oxy)azetidine-1-carbonyl)-4,5-dihydro-1H-pyrazol-5-yl)benzonitrile]	100 to 1000 nM
Cn1ncc(Cl)c1-c1ncc(F)c(OC2CN(C(=O)N3N=CC[C@H]3c3cc(F)cc(C#N)c3)C2)n1 [Compound 16]	0.1 to 100 nM
Cc1nscc1-c1cc(OC2CN(C(=O)N3N=CC[C@H]3c3cc(F)cc(C#N)c3)C2)c(F)cn1 [Compound 17, (S)-3-fluoro-5-(1-(3-((5-fluoro-2-(3-methylisothiazol-4-yl)pyridin-4-yl)oxy)azetidine-1-carbonyl)-4,5-dihydro-1H-pyrazol-5-yl)benzonitrile]	0.1 to 100 nM
Cc1ncsc1-c1cc(OC2CN(C(=O)N3N=CC[C@H]3c3cc(F)cc(C#N)c3)C2)c(F)cn1 [Compound 18, (S)-3-fluoro-5-(1-(3-((5-fluoro-2-(4-methylthiazol-5-yl)pyridin-4-yl)oxy)azetidine-1-carbonyl)-4,5-dihydro-1H-pyrazol-5-yl)benzonitrile]	0.1 to 100 nM
Cc1n[nH]c(C)c1-c1cc(OC2CN(C(=O)N3N=CC[C@H]3c3cc(F)cc(C#N)c3)C2)c(F)cn1 [Compound 19, (S)-3-(1-(3-((2-(3,5-dimethyl-1H-pyrazol-4-yl)-5-fluoropyridin-4-yl)oxy)azetidine-1-carbonyl)-4,5-dihydro-1H-pyrazol-5-yl)-5-fluorobenzonitrile]	0.1 to 100 nM
